Data on three compounds can be found in publication PMC5591577, “Computationally-guided optimization of small-molecule inhibitors of the Aurora A kinase–TPX2 protein–protein interaction” (Chemical Communications (Cambridge, England), 2017).

pKi: −log10 of the molar value.

Assay [1] addresses T1, Aurora A kinase (Homo sapiens, UniProt O14965).
T1 sequence (O14965 1-403): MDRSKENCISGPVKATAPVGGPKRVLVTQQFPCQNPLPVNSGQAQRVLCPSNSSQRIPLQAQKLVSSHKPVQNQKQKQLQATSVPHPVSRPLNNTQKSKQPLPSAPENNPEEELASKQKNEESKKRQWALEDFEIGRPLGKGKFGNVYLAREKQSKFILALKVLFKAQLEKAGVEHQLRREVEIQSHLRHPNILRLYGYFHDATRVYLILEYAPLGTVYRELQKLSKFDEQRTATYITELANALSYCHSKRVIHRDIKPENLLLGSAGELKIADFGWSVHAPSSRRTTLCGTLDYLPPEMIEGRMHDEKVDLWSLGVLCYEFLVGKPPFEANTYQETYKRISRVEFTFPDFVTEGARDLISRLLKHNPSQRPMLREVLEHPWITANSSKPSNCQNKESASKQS
In words: fluorescence anisotropy competition assay (TPX2 displacement). Particulars: read-out: K i ^b. Set-up: gene AURKA; with TPX2. The class given is binding. A general note: Fluorescence polarisation rises when a labelled molecule tumbles more slowly, as on binding a larger partner.

The target in assay [2] is T1, Aurora A kinase. Description: X-ray crystal structure (Ki by fluorescence anisotropy, from ref […]). In kind it is binding. More on the design: gene AURKA. Particulars: cited from earlier work.

On to `Cc1ccc(-c2cc(C(=O)O)c3ccccc3n2)cc1F` [compound 9], for which the pKi on Aurora A kinase [1] was 5.06.
As to `O=C(O)c1cc(-c2cccc(F)c2)nc2ccccc12` [compound 2], the pKi on Aurora A kinase [2] was 4.78.
Take `Cc1ccc(-c2cc(C(=O)O)c3ccccc3n2)cc1Br` [compound 10]: the pKi at Aurora A kinase [1] is 5.64.
